These are literature values, as cited in patent EP2487157A1, “Enantioselective synthesis method of 4-aminoalcoholquinoline derivatives and the use” (Université de Picardie Jules Verne, priority 2011, dated 2012).

Structures are written as SMILES.

One data set relates to CNS adenosine receptors. Conditions: result in words, from literature; cited from earlier work.
For data set [1], the system named is Sierra Leone and Indochina P. falciparum strains. The settings on record: ratio of IC50 values against Sierra Leone and Indochina P. falciparum strains; cited from earlier work.

On to `O[C@H](c1cc(C(F)(F)F)nc2c(C(F)(F)F)cccc12)[C@@H]1CCCCN1` (single isomer, unassigned) [(+)-enantiomer of the mefloquine], for which the “binding to CNS adenosine receptors” value in the data set with CNS adenosine receptors is recorded as “without significant activity”. For the same compound, in data set [1], the “more potent than the (-)-enantiomer by a factor” value is listed as 1.69.
Consider `O[C@@H](c1cc(C(F)(F)F)nc2c(C(F)(F)F)cccc12)[C@H]1CCCCN1` (single isomer, unassigned) [(-)-enantiomer of mefloquine], for which, in the data set with CNS adenosine receptors, the “binding to CNS adenosine receptors” value is on record as “binds to CNS adenosine receptors”.
